Data on 4 substances can be found in patent publication US11866516B2, “Isolated peptide, anti-cancer medicinal composition including the same and method of specifically reducing or inhibiting activities of cancer cells using the same” (National Sun Yat-Sen Univesity, priority 2020, dated 2024).

For one assay, the target named is T1, recombinant ATG4A (Homo sapiens, UniProt Q8WYN0).
T1 sequence (Q8WYN0 1-398): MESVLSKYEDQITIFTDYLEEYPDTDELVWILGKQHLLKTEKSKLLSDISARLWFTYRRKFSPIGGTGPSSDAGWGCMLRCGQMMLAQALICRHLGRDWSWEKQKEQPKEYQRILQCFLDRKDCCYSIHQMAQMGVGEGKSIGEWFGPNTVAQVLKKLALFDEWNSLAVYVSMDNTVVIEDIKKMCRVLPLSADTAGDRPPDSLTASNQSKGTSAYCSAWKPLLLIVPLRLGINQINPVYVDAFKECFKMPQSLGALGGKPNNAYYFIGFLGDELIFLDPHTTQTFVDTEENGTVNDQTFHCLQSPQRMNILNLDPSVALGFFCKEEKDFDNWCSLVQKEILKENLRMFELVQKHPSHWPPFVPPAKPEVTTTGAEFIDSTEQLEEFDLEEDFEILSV
Briefly: ATG4 reporter GBRL2-PLA2 assay with recombinant ATG4A. The format is biochemical. Particulars: for inhibitory effect on ATG4A proteolytic activity: recombinant ATG4A 5 nM, 100 nM GBRL2-PLA2, EDTA as positive control. Here is the method: (§1) FIGS. 2A to 2C illustrate the inhibitory effects of GBRL2-derived peptides on ATG4 proteolytic activity according to several embodiments of the present invention. FIGS. 2A and 2B illustrate three α-helical peptides (H1, H2 and H3) derived from GBRL2, which were 2-fold serial titrated and mixed with recombinant ATG4A (5 nM) (FIG. 2A) or recombinant ATG4B (0.1 nM) (FIG. 2B) in the presence of 100 nM reporter GBRL2-PLA2, a general substrate for ATG4 members, to evaluate the inhibitory effect of peptides on ATG4A and ATG4B. The IC50 of peptides on ATG4B and ATG4A was analyzed by Prism 5.0. FIG. 2C illustrates the inhibitory activity of EDTA on proteolysis of ATG4 as a positive control in the upper panel. In the lower panel of FIG. 2C, the H2 peptide was further counter assayed with 0.5 nM caspase-3 and 100 μM DEVD-AFC to validate its specificity.
(§2) The reporter assay was modified from a previous report. Briefly, recombinant ATG4A or ATG4B was mixed with 100 nM GBRL2-PLA2 fusion protein in 20 μL PLA2 reaction buffer containing 20 mM Tris-HCl, pH 8.0, 2 mM CaCl2) and 1 mM DTT, and 20 μM 2-(6-(7-nitrobenz-2-oxa-1,3-diazol-4-yl)amino)hexanoyl-1-hexadecanoyl-sn-glycero-3-phosphocholine (NBD-C6-HPC) (Invitrogen, N-3786). Fluorescence intensity was measured within 30-60 minutes using Fluoroskan Ascent FL Reader (Thermo Fisher Scientific) at room temperature with excitation and emission wavelength of 485 nm and 530 nm, respectively. The IC50 of peptides on GBRL2-PLA2 was determined using nonlinear regression fitting of a series of progress curves.

Assay [1] addresses T2, ATG4B (Homo sapiens, UniProt Q9Y4P1).
T2 sequence (Q9Y4P1 1-393): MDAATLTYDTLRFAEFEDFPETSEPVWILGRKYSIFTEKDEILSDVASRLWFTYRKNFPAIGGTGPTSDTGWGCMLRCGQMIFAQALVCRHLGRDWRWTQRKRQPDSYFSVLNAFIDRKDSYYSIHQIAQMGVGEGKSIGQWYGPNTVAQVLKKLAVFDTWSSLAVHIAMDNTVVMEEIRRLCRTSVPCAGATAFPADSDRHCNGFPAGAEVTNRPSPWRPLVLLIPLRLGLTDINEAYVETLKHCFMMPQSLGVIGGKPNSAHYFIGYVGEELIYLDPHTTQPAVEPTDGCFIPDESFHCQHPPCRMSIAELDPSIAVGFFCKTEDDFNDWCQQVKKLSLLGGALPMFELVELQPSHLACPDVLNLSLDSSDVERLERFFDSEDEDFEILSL
Kind of assay: ATG4 reporter GBRL2-PLA2 assay with recombinant ATG4B. In kind it is biochemical. Particulars: for inhibitory effect on ATG4B proteolytic activity: recombinant ATG4B 0.1 nM, 100 nM GBRL2-PLA2, EDTA as positive control. Here is the method:
as §1, §2

Another assay deals with T3, caspase-3 (Homo sapiens, UniProt P42574).
T3 sequence (P42574 29-175 limits assumed): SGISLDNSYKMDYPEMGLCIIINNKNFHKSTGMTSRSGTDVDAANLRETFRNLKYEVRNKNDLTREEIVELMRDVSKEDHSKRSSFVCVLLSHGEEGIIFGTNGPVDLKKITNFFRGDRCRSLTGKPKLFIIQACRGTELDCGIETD
T3 sequence (P42574 176-277 limits assumed): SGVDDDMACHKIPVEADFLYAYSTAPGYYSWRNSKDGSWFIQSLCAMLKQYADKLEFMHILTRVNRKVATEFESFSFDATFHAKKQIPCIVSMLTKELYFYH
Kind of assay: caspase-3 counter assay with DEVD-AFC. The format is biochemical. Particulars: 0.5 nM caspase-3, 100 μM DEVD-AFC. Here is the method: as §1

Assay [2] deals with T2, ATG4B. Briefly: ATG4B cleavage of chimeric GBRL2 substrate (N-terminal C-myc tag, C-terminal S-tag). In kind it is biochemical. The text has this: FIGS. 3A to 3C illustrate the effects of peptides on cellular ATG4 proteolysis and autophagic flux according to several embodiments of the present invention. FIG. 3A depicts H2 peptides derived from different ATG4 substrates, including MAP1LC3B, MAP1LC3C and GBR, GBRL2 were mixed with chimeric GBRL2 containing N-terminal C-myc tag and C-terminal S-tag. The S-tag GBRL2 in the upper panel and ratios of non-cleaved/cleaved Myc-tag GBRL2 in the lower panel are used to evaluate the inhibitory effects of the H2 peptides. FIG. 3B depicts human glioblastoma H4 cells and colorectal cancer HCT116 cells both treated with 10 μM GBRL2 H2 peptide alone (orange) or TAT peptide alone (red) or GBRL2 H2 peptide conjugated with TAT peptide (green) for 6 hours and analyzed with flow cytometer. […] The luciferase activity is measured to determine the inhibitory effects on cellular ATG4 proteolysis.
Further, H2 helical peptides from different ATG4 substrates were tested for ATG4B activity with GABARAL2 chimeric substrates, which contained N-terminal C-myc tag and C-terminal S-tag (FIG. 3A). Compared to the controls, the remaining S-tag and the ratio of full length C-myc tagged GBRL2/cleaved C-myc tagged GBRL2 levels were quantified to determine the inhibitory effects of peptides on ATG4B proteolytic activity toward GBRL2. […]

For another assay, the system named is cellular ATG4. Kind of assay: ATG4 cleavable luciferase assay in cells. The format is cell-based, human. Particulars: HCT116 cells expressing ATG4 cleavable luciferase, 6 hours, ATG4B silencer as positive control. The text has this: FIGS. 3A to 3C illustrate the effects of peptides on cellular ATG4 proteolysis and autophagic flux according to several embodiments of the present invention. FIG. 3A depicts H2 peptides derived from different ATG4 substrates, including MAP1LC3B, MAP1LC3C and GBR, GBRL2 were mixed with chimeric GBRL2 containing N-terminal C-myc tag and C-terminal S-tag. The S-tag GBRL2 in the upper panel and ratios of non-cleaved/cleaved Myc-tag GBRL2 in the lower panel are used to evaluate the inhibitory effects of the H2 peptides. FIG. 3B depicts human glioblastoma H4 cells and colorectal cancer HCT116 cells both treated with 10 μM GBRL2 H2 peptide alone (orange) or TAT peptide alone (red) or GBRL2 H2 peptide conjugated with TAT peptide (green) for 6 hours and analyzed with flow cytometer. FIG. 3C depicts the HCT116 cells expressing ATG4 cleavable luciferase treated with GBRL2 H2 peptide for 6 hours. The luciferase activity is measured to determine the inhibitory effects on cellular ATG4 proteolysis.
The plasmid MAP1LC3 wt-Luc or MAP1LC3 G120A-Luc (as a normalization control) was transfected into HEK293T (2000 cells/40 μL) seeded in 384-well white plates for overnight. The cells were treated with ATG4 inhibitors for 8 hours or 16 hours, followed by adding 200 μM D-luciferin (Promega) into each well to monitor the luciferase activity to reflect ATG4 activity in cells. […]

For assay [3], the system named is H4 cells. Briefly: cell viability, H4 cells. The format is cell-based, human. Particulars: data not shown. Here is the method:
(§3) Since ATG4 might be required for cancer cell viability and metastatic characteristics, such as migration and invasion, the H4 cells and HCT116 cells were treated with peptides to determine the short- and long-term effects of peptide on cancer cells (FIGS. 4A to 4B).

For assay [4], the system named is HCT116 cells. Briefly: cell viability, HCT116 cells. In kind it is cell-based, human. The conditions noted are these: data not shown. Here is the method:
as §3

Assay [5] deals with H4 cells. Kind of assay: propidium iodide (PI) uptake, H4 cells. The format is cell-based, human. Particulars: data not shown. On the procedure:
as §3

The test system of assay [6] is HCT116 cells. Kind of assay: propidium iodide (PI) uptake, HCT116 cells. The format is cell-based, human. The conditions noted are these: data not shown. On the procedure:
as §3

Assay [7] relates to H4 cells. Kind of assay: clonogenic assay, H4 cells. In kind it is cell-based, human. Particulars: peptide 5 μM, long-term treatment. Here is the method: (§4) FIGS. 4A and 4B depict the cytotoxic effects of peptide (5 μM) in H4 cells (FIG. 4A) and HCT116 cells (FIG. 4B) further confirmed by clonogenic assay according to several embodiments of the present invention.
as §3

Assay [8] relates to HCT116 cells. Kind of assay: clonogenic assay, HCT116 cells. In kind it is cell-based, human. The conditions noted are these: peptide 5 μM, long-term treatment. On the procedure: as §4, §3
In assay [9] the test system is human glioblastoma H4 cells. Briefly: cell migration assay, H4 cells. The conditions noted are these: TAT-GBRL2 at higher dose (20 μM), data not shown. In kind it is cell-based. Here is the method:
(§5) Besides the role of ATG4 in cancer cell survival, ATG4 plays a crucial role in cancer metastasis. Human glioblastoma H4 cells and colorectal cancer HCT116 cells were treated with the peptides for the cell migration assay.

For assay [10], the system named is colorectal cancer HCT116 cells. Briefly: cell migration assay, HCT116 cells. The format is cell-based, human. Particulars: TAT-GBRL2 at higher dose (20 μM), data not shown. On the procedure: as §5
The subject of assay [11] is HCT116 cells. Briefly: invasion through Matrigel-coated Transwell filters. The format is cell-based, human.
Excerpt: FIGS. 5A to 5B illustrate the effects of GBRL2 peptides on cancer cell migration and invasion according to several embodiments of the present invention. FIG. 5A depicts the invasion of HCT116 cells examined with Matrigel-coated Transwell filters in the presence or absence of peptides, and the cell invasion results are quantified with ImageJ software. FIG. 5B depicts the quantified results for invasion expressed as the mean±SEM. *p<0.05; **p<0.01.
as §5

No end group written: not given here.

For “H3: α-helical peptide derived from GBRL2, MGQLYEKE, SEQ ID NO:12 (Ac-MGQLYEKE-NH2)”, in the assay with recombinant ATG4A, the “inhibitory effect on ATG4A proteolytic activity” value is “showed inhibitory effects”. Moreover, the “inhibitory effect on ATG4B proteolytic activity” value in the assay with ATG4B [1] is given as “showed inhibitory effects”.

On to “H1: α-helical peptide derived from GBRL2, LEHRCVESAKIRAK, SEQ ID NO:11 (Ac-LEHRCVESAKIRAK-NH2)”, for which the “inhibitory effect on ATG4A proteolytic activity” value in the assay with recombinant ATG4A was “showed inhibitory effects”. Moreover, in the assay with ATG4B [1], the “inhibitory effect on ATG4B proteolytic activity” value was “showed inhibitory effects”.

For the substance “α-helix 2 peptide derived from GBRL2 (GABARAPL2), VAQFMWIIRKR, SEQ ID NO:1 (VAQFMWIIRKR-NH2; not fully specified (N-terminus))”, the “IC50 on ATG4A, rank among H1, H2, H3” value with recombinant ATG4A (GBRL2-PLA2 reporter assay) was “lowest IC50”. Moreover, the “inhibitory effect on ATG4A proteolytic activity” value in the assay with recombinant ATG4A is given as “showed inhibitory effects”. Further, the “IC50 on ATG4B, rank among H1, H2, H3” value in the assay with ATG4B [1] (GBRL2-PLA2 reporter assay) is “lowest IC50”. Also, the “inhibitory effect on ATG4B proteolytic activity” value in the assay with ATG4B [1] is reported as “showed inhibitory effects”. Further, the “effect on activity of caspase-3” value with caspase-3 is recorded as “no effects”. Also, the “relative strength of inhibition on ATG4B among H2 peptides” value in the assay with ATG4B [2] (compared with H2 peptides of other ATG4 substrates) is listed as “strongest inhibition”. For the same substance, in the assay with ATG4B [2] (remaining S-tag and ratio full length/cleaved C-myc tagged GBRL2), the “inhibition of ATG4B cleavage activity toward GBRL2” value is on record as “inhibited ATG4B cleavage activity in dose dependent manner”. Also, the “cellular luciferase activity (cellular ATG4 proteolysis)” value with cellular ATG4 is on record as “elevated cellular luciferase activity”. In addition, the cell viability entry in the assay on H4 cells [3] and in the assay on HCT116 cells [4] was “no or little effects” in each case. The PI positive proportion result with H4 cells [5] and with HCT116 cells [6] was “slightly increased PI positive cells” each time. Moreover, the colony formation entry in the assay on H4 cells [7] and with HCT116 cells [8] was “reduced colony formation” in each case. Moreover, the cell migration result in [9] and in [10] was “not altered” in each case. Besides, in the assay with HCT116 cells [11], the “invaded HCT116 cells” value is “significantly decreased the invaded HCT116 cells”.

As to “TAT: Tat penetration domain, HIV-1 TAT basic domain, YGRKKRRQRRR, SEQ ID NO:2; control peptide (Ac-YGRKKRRQRRR-NH2) [reference compound]”, the cell viability result in the assay on H4 cells [3] and in the assay with HCT116 cells [4] was “no or little effects” in each case. The PI positive proportion result in the assay with H4 cells [5] and with HCT116 cells [6] was “no effects on PI uptake” each time. Further, the cell migration result in assay [9] and in assay [10] was “not altered” in each case.
